# Measurements as given in patent publication US20060143718A1, “Transgenic animals for monitoring water quality” (priority 2000, published 2006).
# Experiments:
# [1] = system: EPRE constructs; assay: Transient transfection of LUC reporter constructs in zebrafish ZEM2S cells, EPRE constructs; type: cell-based
# [2] = system: MRE constructs; assay: Transient transfection of LUC reporter constructs in zebrafish ZEM2S cells, MRE constructs; type: cell-based
# [3] = cited from earlier work
# [4] = system: AHRE reporter constructs; assay: Transient transfection of LUC reporter constructs in zebrafish ZEM2S cells, AHRE constructs; type: cell-based
smiles,measurement,setting,value
CC(C)(C)c1cc(O)ccc1O [tBHQ],concentration achieving maximal LUC activity,[1],10 µM
[Cl][Cd][Cl] [CdCl2],concentration achieving maximal LUC activity,[2],30 µM
"Clc1cc2c(cc1Cl)Oc1cc(Cl)c(Cl)cc1O2 [TCDD, 2,3,7,8-tetrachlorodibenzo-p-dioxin]",bioconcentration in fish,[3],"100,000 fold"
same,bioconcentration,"[3]; fish, in the food chain","> 100,000 times"
same,concentration achieving maximal LUC activity,[4],10 nM
